# Assay results from patent publication US4354039A, “Chlorocitric acids” (Hoffmann-La Roche Inc., priority 1981, dated 1982).
# Where a name gives a salt, the structure may show the parent alone. Read-outs that look alike come from different tables or passages of the source.
# Assays:
# [1] = Comparative anorectic activity, food consumption of meal-fed rats (Example 13); format: in vivo, Charles River female rats; conditions: 3 hr meal
# Protocol: Charles River female rats (Charles River Breeding Laboratories, Wilmington, Mass.), weighing 150 to 175 g, were individually housed in wire-bottomed cages in a temperature-regulated (22° C.) light-controlled room (12 hr light, 6 a.m. to 6 p.m. and 12 hr dark, 6 p.m. to 6 a.m.). Animals were fasted 48 hr, then meal-fed the 70% glucose diet described by A. C. Sullivan, et al., J. Nutrition, 101, 265 (1971) from 8 to 11 a.m. Following 5 to 13 days alimentation on the meal-feeding regimen, rats were dosed with the appropriate compounds orally by intubation 1/2 hr before the 3 hr meal. Food cups were weighed immediately after the meal. The control group consists of 31 rats while each drug treated group consists of 5 to 12 rats.
# The G-70 diet consisted of 70% glucose, 23% vitamin-free casein, 5% Phillips and Hart salt mixture IV, 1% corn oil, 1% complete vitamin mixture, and 40 g/kg cellulose. To ensure complete uniformity, all diets were mixed with a twen-shell dry blender equipped with an itensifier bar (Patterson-Kelley Co., East Stroudsburg, Pa.).
# [2] = Food intake in dogs, pyramiding oral doses (Examples 26 and 27); format: in vivo, beagle dogs
# Protocol: Twelve beagle dogs of both sexes weighing 7.6-12.2 kg were used for this test. The test compounds were contained in gelatin capsules for oral administration to two dogs of each sex. The animals were weighed and food consumption calculated daily excluding weekends throughout the test period. Each animal received 800 grams of diet daily consisting of 400 grams of Wayne pellet dog food mixed with 400 ml distilled water. The animals received pyramiding oral doses of the test compound over the three week period. On Monday and Tuesday of the first week the animals were weighed and food consumption was recorded (control). […] Doses of 30, 100 and 300 mg/kg were administered on Monday, Wednesday and Friday respectively during the second week. A final dose of 1000 mg/kg was administered on Monday of the third week.
# Food intake was determined by the procedure at pyramiding doses described in EXAMPLE 26.
# [3] = Effect on stomach emptying, [14C] glucose load (Example 25); format: in vivo, Rats; conditions: for Serum, % of control / Stomach Contents, % of control: 0.33 mmoles/kg oral, 60 min after [14C] glucose load
# Protocol: Rats were trained to consume a 3 hr 70% glucose meal from 8 a.m. to 11 a.m. daily. On the experimental day, compounds were administered orally by intubation 30 min before a [^14 C] glucose load was given also by intubation. […] Sixty minutes later the rats were killed by decapitation; blood and stomachs were collected on ice.
# Data are expressed as follows: dpm×10^3 per ml of serum and dpm×10^3 per stomach.
# [4] = system: isolated rat hepatocytes; experiment: Fatty acid and cholesterol synthesis and CO2 production in isolated hepatocytes (Example 23); format: cell-based, Female Charles River rats; conditions: for activity at 2000 µM: Rattus norvegicus, Hepatocyte, 1 h, 2 mM, 60 min, 37° C.
# Protocol: Female Charles River rats were fasted 48 hr, then meal-fed a 1% corn oil, 70% glucose diet for 7 to 14 days from 8 to 11 a.m. The isolated rat hepatocytes were prepared by perfusing the liver in situ. The hepatocytes were incubated in an oscillating water bath at 37° C. for 60 min. […] All incubations were done in triplicate and all experiments were repeated at least twice. […] The contents of the center well were transferred to scintillation counting fluid and ^14 CO2 content was determined. […] The media was then acidified, extracted with hexane, and the extract counted (to determine the rate of lipogenesis). The conversion of ^3 H2 O and [^14 C]alanine into fatty acids or sterols was determined in a PDS/3, Mark II liquid scintillation counting system.
# [5] = Effect of stereoisomers on food consumption of meal-fed rats (Example 14); format: in vivo, Charles River female rats
# Protocol: Animals were fasted 48 hr, then meal-fed the 70% glucose diet described by A. C. […] Following 5 to 12 days alimentation on the meal-feeding regimen, rats were dosed with the appropriate compounds orally by intubation 1/2 hr before the 3 hr meal. Food cups were weighed immediately after the meal. The control group consisted of 5 to 10 rats, while the experimental group consisted of 4 to 6 rats.
# [6] = Anorectic activities of stereoisomers, 3-day food consumption and body weight gain (Example 16); format: in vivo, Charles River female rats; conditions: 1.32 mmoles/kg oral, 3 days
# Protocol: Charles River female rats (Charles River Breeding Laboratories, Wilmington, Mass.), weighing 196 to 210 g, were individually housed in wire-bottomed cages in a temperature-regulated (22° C.) light-controlled room (12 hr light, 6 a.m. to 6 p.m. and 12 hr dark, 6 p.m. to 6 a.m.). Animals were fasted 48 hr, then meal-fed a 70% glucose diet from 8 to 11 a.m. Following 5 to 12 days alimentation on the meal-feeding regimen, rats were dosed with the appropriate compounds orally by intubation 1/2 hr before the 3 hr meal for 3 days. The total food consumption and body weight gained during the 3 day period were determined. The control group consisted of 16 rats, while the experimental group consists of 8 rats.
# [7] = Anorectic effect in 8 hour meal-fed Zucker rats (Example 17); format: in vivo, lean (Fa/-) and obese (fa/fa)
# Protocol: Lean (Fa/-) Zucker rats and obese (fa/fa) Zucker rats of both sexes were individually housed in wire-bottomed cages in a temperature-regulated (22° C.) light-controlled room (12 hr light, 6 a.m. to 6 p.m. and 12 hr dark, 6 p.m. to 6 a.m.). The animals were fed a high carbohydrate (70% glucose) diet ad libitum for 13 days, dosed with the indicated compounds by oral intubation for 9 days and allowed to recover for 3 days. The animals were then meal fed from 8 a.m. to 4 p.m. for a period of 5 days, following which they were continued on the same meal schedule for an additional 6 days. During the 6-day period, the animals were administered the indicated compounds by oral intubation at 8 a.m. and 12 p.m. Food cups were weighed immediately after the meal.
# [8] = test day 8, dose 100 mg/kg oral
# [9] = test day 10, dose 300 mg/kg oral
# [10] = test day 13, dose 1000 mg/kg oral
smiles,measurement,setting,value
O=C(O)C[C@@](O)(C(=O)O)[C@@H](Cl)C(=O)O (relative stereo) [(±)-threo-Chlorocitric acid],"Food Consumption, % of control",[1]; 0.08 mmoles/kg oral,57 % of control
same,"Food Consumption, % of control",[1]; 0.17 mmoles/kg oral,61 % of control
same,"Food Consumption, % of control",[1]; 0.33 mmoles/kg oral,51 % of control
same,"Food Consumption, % of control",[1]; 0.66 mmoles/kg oral,35 % of control
same,"Food Consumption, % of control",[1]; 1.32 mmoles/kg oral,28 % of control
same,"Food Consumption, % of control",[1]; 2.63 mmoles/kg oral,34 % of control
same,Food Consumption,"[2]; test day 1, dose 3 mg/kg oral",616 ± 79 g
same,"Food Consumption, % of control","[2]; test day 1, dose 3 mg/kg oral",129 % of control
same,Food Consumption,"[2]; test day 2, no dose",392 ± 140 g
same,"Food Consumption, % of control","[2]; test day 2, no dose",82 % of control
same,Food Consumption,"[2]; test day 3, dose 10 mg/kg oral",460 ± 136 g
same,"Food Consumption, % of control","[2]; test day 3, dose 10 mg/kg oral",96 % of control
same,Food Consumption,"[2]; test day 6, dose 30 mg/kg oral",511 ± 104 g
same,"Food Consumption, % of control","[2]; test day 6, dose 30 mg/kg oral",107 % of control
same,"Food Consumption, % of control","[2]; test day 7, no dose",100 % of control
same,Food Consumption,[2]; [8],299 ± 176 g
same,"Food Consumption, % of control",[2]; [8],62 % of control
same,Food Consumption,"[2]; test day 9, no dose",492 ± 110 g
same,"Food Consumption, % of control","[2]; test day 9, no dose",103 % of control
same,Food Consumption,[2]; [9],316 ± 109 g
same,"Food Consumption, % of control",[2]; [9],66 % of control
same,Food Consumption,[2]; [10],164 ± 61 g
same,"Food Consumption, % of control",[2]; [10],34 % of control
same,Food Consumption,"[2]; test day 14, no dose",560 ± 136 g
same,"Food Consumption, % of control","[2]; test day 14, no dose",117 % of control
same,Food Consumption,"[2]; test day 15, no dose",543 ± 92 g
same,"Food Consumption, % of control","[2]; test day 15, no dose",113 % of control
same,Food Consumption,"[2]; test day 16, no dose",624 ± 88 g
same,"Food Consumption, % of control","[2]; test day 16, no dose",130 % of control
same,Food Consumption,"[2]; test day 17, no dose",645 ± 93 g
same,"Food Consumption, % of control","[2]; test day 17, no dose",135 % of control
same,Food Consumption,"[2]; test day 21, no dose",561 ± 83 g
same,"Food Consumption, % of control","[2]; test day 21, no dose",117 % of control
same,Food Consumption,"[2]; test day 22, no dose",649 ± 91 g
same,"Food Consumption, % of control","[2]; test day 22, no dose",135 % of control
same,Food Consumption,"[2]; test day 23, no dose",533 ± 118 g
same,"Food Consumption, % of control","[2]; test day 23, no dose",111 % of control
same,Food Consumption,"[2]; test day 24, no dose",477 ± 114 g
same,"Food Consumption, % of control","[2]; test day 24, no dose",100 % of control
same,Food Consumption,"[2]; test day 27, no dose",518 ± 139 g
same,"Food Consumption, % of control","[2]; test day 27, no dose",108 % of control
same,Food Consumption,"[2]; test day 28, no dose",663 ± 137 g
same,"Food Consumption, % of control","[2]; test day 28, no dose",138 % of control
"O=C(O)CC(O)(C(=O)O)C(O)C(=O)O (single isomer, unassigned) [hydroxycitric acid, reference compound]",gastric emptying,"[3]; in words, comparable doses",delayed gastric emptying
same,inhibition of lipid (fatty acid) and cholesterol syntheses,[4]; in words,inhibition of fatty acid and cholesterol syntheses
O=C(O)C[C@@](O)(C(=O)O)[C@H](Cl)C(=O)O [(+)-erythro-Chlorocitric acid],"Food Consumption, % of control",[5]; 0.66 mmoles/kg oral,99 % of control
same,"Food Consumption, % of control",[5]; 2.63 mmoles/kg oral,78 % of control
same,"Serum, % of control",[3],88 % of control
same,"Stomach Contents, % of control",[3],207 % of control
same,"3-Day Body Weight Gain, % of initial body weight",[6],-0.7 % of initial body weight
same,"3-Day Food Consumption, % of control",[6],111 % of control
O=C(O)C[C@](O)(C(=O)O)[C@@H](Cl)C(=O)O [(-)-erythro-Chlorocitric acid],"Food Consumption, % of control",[5]; 0.66 mmoles/kg oral,85 % of control
same,"Food Consumption, % of control",[5]; 2.63 mmoles/kg oral,53 % of control
same,"Serum, % of control",[3],90 % of control
same,"Stomach Contents, % of control",[3],169 % of control
same,"3-Day Body Weight Gain, % of initial body weight",[6],-2.4 % of initial body weight
same,"3-Day Food Consumption, % of control",[6],86 % of control
O=C(O)CC(O)(CC(=O)O)C(=O)O [Citric Acid],"Food Consumption, % of control",[5]; 2.63 mmoles/kg oral,94 % of control
same,Daily Food Consumption,"[7]; Fa/-- lean, 1.32 mmoles/kg group, pretreatment day 0",11.0 ± 0.8 g
same,Daily Food Consumption,"[7]; Fa/-- lean, 1.32 mmoles/kg oral, day 1",10.6 ± 1.2 g
same,Daily Food Consumption,"[7]; Fa/-- lean, 1.32 mmoles/kg oral, day 2",10.0 ± 1.2 g
same,Daily Food Consumption,"[7]; Fa/-- lean, 1.32 mmoles/kg oral, day 3",12.7 ± 1.0 g
same,Daily Food Consumption,"[7]; Fa/-- lean, 1.32 mmoles/kg oral, day 4",11.9 ± 0.7 g
same,Daily Food Consumption,"[7]; Fa/-- lean, 1.32 mmoles/kg oral, day 5",12.6 g
same,Daily Food Consumption,"[7]; Fa/-- lean, 1.32 mmoles/kg oral, day 6",13.1 ± 0.9 g
same,Daily Food Consumption,"[7]; fa/fa obese, 1.32 mmoles/kg group, pretreatment day 0",13.4 ± 0.8 g
same,Daily Food Consumption,"[7]; fa/fa obese, 1.32 mmoles/kg oral, day 1",11.4 ± 0.8 g
same,Daily Food Consumption,"[7]; fa/fa obese, 1.32 mmoles/kg oral, day 2",13.8 ± 1.2 g
same,Daily Food Consumption,"[7]; fa/fa obese, 1.32 mmoles/kg oral, day 3",16.5 ± 1.0 g
same,Daily Food Consumption,"[7]; fa/fa obese, 1.32 mmoles/kg oral, day 4",14.8 ± 0.9 g
same,Daily Food Consumption,"[7]; fa/fa obese, 1.32 mmoles/kg oral, day 6",16.0 ± 1.0 g
"O=C(O)C[C@@](O)(C(=O)O)[C@H](O)C(=O)O [Trisodium (-)-threo-hydroxycitrate, reference compound]","Food Consumption, % of control",[1]; 0.33 mmoles/kg oral,103 % of control
same,"Food Consumption, % of control",[1]; 0.66 mmoles/kg oral,80 % of control
same,"Food Consumption, % of control",[1]; 1.32 mmoles/kg oral,88 % of control
same,"Food Consumption, % of control",[1]; 2.63 mmoles/kg oral,79 % of control
same,"Serum, % of control",[3],79 % of control
same,"Stomach Contents, % of control",[3],223 % of control
same,activity at 2000 µM,"[4]; read-out: CO2 Production, [14C]alanine converted",103%
same,activity at 2000 µM,"[4]; read-out: Cholesterol Synthesis, 3H2O converted",60%
same,activity at 2000 µM,"[4]; read-out: Cholesterol Synthesis, [14C]alanine converted",18%
same,activity at 2000 µM,"[4]; read-out: Fatty Acid Synthesis, 3H2O converted",54%
same,activity at 2000 µM,"[4]; read-out: Fatty Acid Synthesis, [14C]alanine converted",30%
"O=C(O)CC(O)(CC(=O)O)C(=O)O [Trisodium Citrate, reference compound]","Serum, % of control",[3],112 % of control
same,"Stomach Contents, % of control",[3],133 % of control
